{"source": "patent US20170239289A1", "about": "“TREATMENT OF INFLAMMATION, RESPIRATORY TRACT INFECTIONS AND CYSTIC FIBROSIS” (Advanced Inhalation Therapies (AIT) Ltd., priority 2014, published 2017)", "key": {"[1]": {"system": "methicillin-sensitive S. aureus (MSSA)", "test": "Example 1: microbial density in sputum (CFU) during NO inhalation", "format": "in vivo, Staphylococcus aureus", "details": "Patient 3 (CFSCH03)", "protocol": "(§1) NO was administered via inhalation to nine clinically stable human subjects diagnosed with, or suffering from CF from two medical centers. Patients received three daily 30-minute treatments of 160 ppm NO with at least 3.5 hours between treatments, for 5 days per week over a two-weeks time period.\n(§2) Preliminary efficacy measures included determination of microbial density in sputum and measurements of forced exhaled volume at 1 second (FEV1). Inflammation associated with C-reactive protein (CRP) levels was assessed as a secondary outcome measure. Other inflammation biomarkers, such as interleukins, were also monitored (data not shown).\nBacterial load was measured for exemplary, non-limiting selection of species that included, P. alcaligenes, methicillin-sensitive Staphylococcus aureus (MSSA), Achromobacter spp., A. fumigates, non-mucoid P. aeruginosa and mucoid P. aeruginosa."}, "[2]": {"system": "human subjects diagnosed with, or suffering from CF", "test": "Example 1: FEV1 in CF subjects treated with 160 ppm NO", "format": "in vivo", "protocol": "as §1, §2"}, "[3]": {"system": "human subjects diagnosed with cystic fibrosis", "test": "Example 4: lung function indices by spirometry", "format": "in vivo", "protocol": "(§3) In addition to their standard care, subjects were administered three 30-minute inhalations per day of 160 ppm NO (with O2/air) for 10 working days (i.e., 5 days on treatment, 2 days off treatment, 5 days on treatment, for a total of 10 treatment days and 30 inhalations).\n(§4) Secondary Endpoints—Efficacy: • Comparison of FEV1 improvement before and after NO treatment Observational Endpoints: • To determine the reduction in bacterial and fungal sputum load during each week of NO treatment compared to bacterial sputum load before NO treatment • Assess the improvement of lung function indices during and after NO intermittent inhalation treatment as determined by spirometry (i.e., FVC, FEV1, FEV1/FVC, forced expiratory flow 25% to 75% (FEF 25-75)) • Evaluate C-reactive protein (CRP) levels over time • Number of subjects with study drug related bleeding at any time point\nThe Signed rank test for two means was applied for analyzing changes from baseline in continuous parameters: • FEV1% • Specific bacterial colonization (i.e., S. aureus, P. aeruginosa)"}, "[4]": {"system": "S. aureus (MSSA)", "test": "Example 4: bacterial and fungal sputum load", "format": "in vivo, Staphylococcus aureus", "protocol": "as §3, §4\nResults of the bacterial and fungal sputum load analysis were highly variable, and due to limitations of the sampling and testing technique, must be interpreted with caution. Microbiology results were recorded from Day 1 to end of follow-up, for all samples taken during the study. In order for NO therapy to be efficient, a minimal exposure of the microbial population to NO for the whole duration of the study is required. […] Thus, data was analyzed only for cultures with positive results on Day 1. Furthermore, samples from 2 subjects (SO-01 and SO-02) were not analyzed by the central laboratory. A summary of the bacterial and fungal sputum results at Day 1 and Day 9 is presented according to subject in Table 18."}, "[5]": {"system": "C-reactive protein (CRP)", "test": "Example 4: CRP levels over time", "format": "in vivo, human", "details": "three subjects with systemic inflammation (CRP greater than 5 mg/L) on Day 1", "protocol": "as §3, §4"}, "[6]": {"system": "human subjects diagnosed with cystic fibrosis", "test": "Example 4: CF study, 160 ppm NO 30 min 3x daily for 10 treatment days; safety", "format": "in vivo", "protocol": "as §3\nA minimum time interval of 3.5 hours from the end of one treatment to the beginning of the next treatment was required.\nAs a safety measure, during NO administration, human subjects' MetHb and 02 saturation levels in the blood were monitored utilizing a commercial “off the shelf” co-oxymeter (Masimo Corporation Model RAD-57/RAD 87).\nIn the event of MetHb greater than 5% or O2 saturation less than or equal to 88%, treatment was temporarily discontinued, and measure repeated 30 minutes later. If value(s) had returned to above the safety threshold, the next inhalation was started according to protocol. In any case of a second episode of MeHb greater than 5%, study treatment was to be permanently discontinued.\nPrimary Endpoints—Safety and Tolerability: • Safety • Determine the MetHb levels during treatment with inhaled NO • Determine other AEs associated with inhaled NO • Tolerability • Proportion of subjects (%) who prematurely discontinued the study or study treatment for any reason • Proportion of subjects (%) who prematurely discontinued the study treatment due to AEs or SAEs • Proportion of subjects (%) who prematurely discontinued the study treatment due to AEs or SAEs associated with inhaled NO\nAll measured variables and derived parameters were listed individually and tabulated by descriptive statistics. For categorical variables, summary tables were provided giving sample size, absolute and relative frequency. For continuous variables, summary tables were provided giving sample size, arithmetic mean, SD, median, minimum and maximum and 95% CI for means of variables. For the ITT cohort, the LOCF approach was applied, when deemed appropriate, to account for missing data at or prior to study termination. Methemoglobin was summarized in appropriate descriptive tables. The percent of subjects with MetHb level greater than 5% was calculated per time point. Changes from baseline in MetHb levels were analyzed using Signed rank test for two means. Laboratory results were summarized in appropriate tables by time. Changes from baseline were calculated and presented as well."}, "[7]": {"details": "Follow-up 2 (2 weeks after Day 10), n=9"}}, "note": "“Also recorded” adds a separate entry of the source.", "data": [{"smiles": "[N]=O", "note": "[NO, nitric oxide]", "values": [{"measurement": "MSSA CFU counts", "setting": "[1]", "result": "elimination"}, {"measurement": "FEV1 reduction", "setting": "[2]; one patient, returned to initial levels after 2 weeks", "result": 11, "unit": "%"}, {"measurement": "changes in FEV1 values", "setting": "[2]; two of 9 subjects", "result": "no significant changes"}, {"measurement": "FEF 25-75% Absolute, Mean", "setting": "[3]; Day 1, n=9", "result": 30.000, "unit": "%"}, {"measurement": "FEF 25-75% Absolute, Median", "setting": "[3]; Day 1, n=9", "result": 27.000, "unit": "%"}, {"measurement": "FEF 25-75 Absolute, Mean", "setting": "[3]; Day 1, n=9", "result": 1.151, "unit": "L/s"}, {"measurement": "FEF 25-75 Absolute, Median", "setting": "[3]; Day 1, n=9", "result": 1.090, "unit": "L/s"}, {"measurement": "FEV1/FVC, Mean", "setting": "[3]; Day 1, n=9", "result": 68.778, "unit": "%"}, {"measurement": "FEV1/FVC, Median", "setting": "[3]; Day 1, n=9", "result": 69.000, "unit": "%"}, {"measurement": "FEV1 Absolute, Mean", "setting": "[3]; Day 1, n=9", "result": 1.871, "unit": "L"}, {"measurement": "FEV1 Absolute, Median", "setting": "[3]; Day 1, n=9", "result": 1.700, "unit": "L"}, {"measurement": "FEV1 Predicted, Mean", "setting": "[3]; Day 1, n=9", "result": 62.222, "unit": "%"}, {"measurement": "FEV1 Predicted, Median", "setting": "[3]; Day 1, n=9", "result": 64.000, "unit": "%"}, {"measurement": "FVC Absolute, Mean", "setting": "[3]; Day 1, n=9", "result": 2.756, "unit": "L"}, {"measurement": "FVC Absolute, Median", "setting": "[3]; Day 1, n=9", "result": 2.360, "unit": "L"}, {"measurement": "FVC Predicted, Mean", "setting": "[3]; Day 1, n=9", "result": 79.889, "unit": "%"}, {"measurement": "FVC Predicted, Median", "setting": "[3]; Day 1, n=9", "result": 90.000, "unit": "%"}, {"measurement": "FEF 25-75% Absolute, Mean", "setting": "[3]; Day 10, n=9", "result": 28.111, "unit": "%"}, {"measurement": "FEF 25-75% Absolute, Median", "setting": "[3]; Day 10, n=9", "result": 22.000, "unit": "%"}, {"measurement": "FEF 25-75 Absolute, Mean", "setting": "[3]; Day 10, n=9", "result": 1.090, "unit": "L/s"}, {"measurement": "FEF 25-75 Absolute, Median", "setting": "[3]; Day 10, n=9", "result": 0.880, "unit": "L/s"}, {"measurement": "FEV1/FVC, Mean", "setting": "[3]; Day 10, n=9", "result": 65.111, "unit": "%"}, {"measurement": "FEV1/FVC, Median", "setting": "[3]; Day 10, n=9", "result": 66.000, "unit": "%"}, {"measurement": "FEV1 Absolute, Mean", "setting": "[3]; Day 10, n=9", "result": 1.833, "unit": "L"}, {"measurement": "FEV1 Absolute, Median", "setting": "[3]; Day 10, n=9", "result": 1.610, "unit": "L"}, {"measurement": "FEV1 Predicted, Mean", "setting": "[3]; Day 10, n=9", "result": 60.444, "unit": "%"}, {"measurement": "FEV1 Predicted, Median", "setting": "[3]; Day 10, n=9", "result": 59.000, "unit": "%"}, {"measurement": "FVC Absolute, Mean", "setting": "[3]; Day 10, n=9", "result": 2.759, "unit": "L"}, {"measurement": "FVC Absolute, Median", "setting": "[3]; Day 10, n=9", "result": 2.340, "unit": "L"}, {"measurement": "FVC Predicted, Mean", "setting": "[3]; Day 10, n=9", "result": 79.556, "unit": "%"}, {"measurement": "FVC Predicted, Median", "setting": "[3]; Day 10, n=9", "result": 84.000, "unit": "%"}, {"measurement": "FEF 25-75% Absolute, Mean", "setting": "[3]; [7]", "result": 29.667, "unit": "%"}, {"measurement": "FEF 25-75% Absolute, Median", "setting": "[3]; [7]", "result": 23.000, "unit": "%"}, {"measurement": "FEF 25-75 Absolute, Mean", "setting": "[3]; [7]", "result": 1.118, "unit": "L/s"}, {"measurement": "FEF 25-75 Absolute, Median", "setting": "[3]; [7]", "result": 0.910, "unit": "L/s"}, {"measurement": "FEV1/FVC, Mean", "setting": "[3]; [7]", "result": 66.000, "unit": "%"}, {"measurement": "FEV1/FVC, Median", "setting": "[3]; [7]", "result": 65.000, "unit": "%"}, {"measurement": "FEV1 Absolute, Mean", "setting": "[3]; [7]", "result": 1.852, "unit": "L"}, {"measurement": "FEV1 Absolute, Median", "setting": "[3]; [7]", "result": 1.630, "unit": "L"}, {"measurement": "FEV1 Predicted, Mean", "setting": "[3]; [7]", "result": 62.889, "unit": "%"}, {"measurement": "FEV1 Predicted, Median", "setting": "[3]; [7]", "result": 60.000, "unit": "%"}, {"measurement": "FVC Absolute, Mean", "setting": "[3]; [7]", "result": 2.786, "unit": "L"}, {"measurement": "FVC Absolute, Median", "setting": "[3]; [7]", "result": 2.390, "unit": "L"}, {"measurement": "FVC Predicted, Mean", "setting": "[3]; [7]", "result": 81.889, "unit": "%"}, {"measurement": "FVC Predicted, Median", "setting": "[3]; [7]", "result": 85.000, "unit": "%"}, {"measurement": "mean (SD) FEV1 change", "setting": "[3]; from Day 1 to Day 10, N=9, p=0.992", "result": "−0.11", "unit": "%"}, {"measurement": "Lung function indices over time", "setting": "[3]; throughout the study", "result": "no clinically significant changes"}, {"measurement": "S. aureus (MSSA), % change from Day 1 to Day 9", "setting": "[4]; Subject SC-03", "result": "−100.0", "unit": "%"}, {"measurement": "S. aureus (MSSA) sputum load", "setting": "[4]; Subject SC-03, Day 1", "result": 29.5, "unit": "CFU/mL × 10^−4"}, {"measurement": "S. aureus (MSSA) sputum load", "setting": "[4]; Subject SC-03, Day 9", "result": 0, "unit": "CFU/mL × 10^−4"}, {"measurement": "S. aureus (MSSA), % change from Day 1 to Day 9", "setting": "[4]; Subject SO03", "result": "+27.6%"}, {"measurement": "S. aureus (MSSA) sputum load", "setting": "[4]; Subject SO03, Day 1", "result": 67.0, "unit": "CFU/mL × 10^−4"}, {"measurement": "S. aureus (MSSA) sputum load", "setting": "[4]; Subject SO03, Day 9", "result": 85.5, "unit": "CFU/mL × 10^−4"}, {"measurement": "CRP levels from Day 1 to Day 10", "setting": "[5]", "result": "decreased"}, {"measurement": "AEs of MetHb elevation greater than 5% or NO2 elevation greater than 5 ppm", "setting": "[6]; N=9", "result": "no AEs"}, {"measurement": "AEs possibly or probably related to treatment, % of subjects", "setting": "[6]; N=9", "result": 22.2, "unit": "%"}, {"measurement": "Adverse events reported by, % of subjects", "setting": "[6]; N=9", "result": 55.5, "unit": "%"}, {"measurement": "Severe or serious AEs", "setting": "[6]; N=9", "result": "no severe or serious AEs"}, {"measurement": "maximum MetHb level", "setting": "[6]; N=9", "result": 4.6, "unit": "%"}, {"measurement": "total AEs reported", "setting": "[6]; N=9, 20 events in a single subject (SC-01)", "result": 31}, {"measurement": "Subjects with MetHb greater than 5%", "setting": "[6]; entire study treatment period, N=9", "result": "no subjects"}, {"measurement": "cases of haemoptysis", "setting": "[6]; in 2 subjects, all events mild", "result": 7, "unit": "cases"}, {"measurement": "Cumulative effect on MetHb levels", "setting": "[6]; over the study treatment period", "result": "no “cumulative” effect; also recorded: no cumulative effect"}]}]}
